{"source": "patent US11672787B2", "about": "“Compounds as mPGES-1 inhibitors” (Khondrion IP B.V., priority 2017, dated 2023)", "key": {"mPGES-1": {"molecular_target": "T1, mPGES-1 (Mus musculus, UniProt Q9JM51)", "T1 construct": "endogenous in cells; host or cells: RAW 264.7 cells treated 24 h with 1 ug/mL LPS; 100,000 g microsomal pellet", "T1 sequence (Q9JM51 1-153)": "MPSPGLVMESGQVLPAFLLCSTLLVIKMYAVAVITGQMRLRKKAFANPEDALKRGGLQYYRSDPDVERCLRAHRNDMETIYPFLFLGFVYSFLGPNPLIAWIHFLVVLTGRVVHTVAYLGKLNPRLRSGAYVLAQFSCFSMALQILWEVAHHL", "test": "Microsomal PGES activity: conversion of PGH2 to PGE2 by microsomal fractions of LPS-treated RAW 264.7 cells", "format": "biochemical, murine", "settings": "for IC50: microsomal fraction of RAW 264.7 cells treated 24 hours with LPS 1 μg/mL, conversion of PGH2 to PGE2, read-out: IC50 (inhibition of mPGES-1 enzyme activity); for mPGES-1 activity in purified microsomes: 30 minutes", "procedure": "FIG. 6. mPGES-1 activity was assayed as conversion of PGH2 to PGE2 by microsomal fractions of RAW 264.7 cells treated for 24 hours with LPS 1 μg/mL to increase mPGES-1 expression. The microsomal fraction was exposed to increasing concentrations of compound to be tested, or 3 μM of know mPGES-1 inhibitors MK866 or PF9184 as positive controls. PGE2 level was normalized on the vehicle treated microsomal samples (100%). (A) compound I-IVb-X; (B) compound I-IVb-AE; (C) compound I-IVb-A-HCl; (D) compound I-IVb-I.\nPGES activity was measured by assessment of the conversion of PGH2 to PGE2. In brief, after 24 hours incubation with 1 μg/mL LPS the cells were harvested and lysed by sonication (three times for 10 seconds each, at 1 min intervals) in 300 μl of 1 M Tris-HCl (pH 8.0). After centrifugation of the lysate at 12,000 g for 10 min at 4° C., the supernatant was collected and further centrifuged at 100,000 g for 1 h at 4° C. The pellets (microsomal membranes) were resuspended in 100 μl of 0.1M Tris-HCl, pH 8.0, containing protease inhibitors) and subjected to measurement of microsomal PGES activity. For measurement of PGES activity, an aliquot of each sample equivalent to 50 μg of protein was incubated with 2 μg of PGH2 for 60 s at 24° C. in 0.1 ml of 1 M Tris-HCl containing 2 mM glutathione (Sigma-Aldrich) and 14 μM indomethacin, in the absence or presence of the tested compounds. The reaction was terminated by the addition of 100 mM FeCl2, and further incubated at 20-25° C. for 15 min. After centrifugation of the reaction mixture, the PGE2 concentration in the supernatant was measured with the PGE2 high sensitivity EIA kit (Enzo Life Science) according to manufacturer's instructions.\nRAW 264.7 macrophage cells were treated with the inflammatory stimulus LPS to increase the expression of mPGES-1. After 24 hours incubation the microsomes were isolated and exposed to increasing concentration of compound I-IVb-X or a single concentration of previously described mPGES-1 inhibitors MK866 and PF9184 for 30 minutes. The activity of mPGES-1 was then assayed in the microsomes fraction as the conversion of PGH2 to PGE2.\nUsing the methods as described in Example 1, additional compounds were tested. Table 1 provides an overview of the compounds that were tested, along with corresponding IC50 values. FIGS. 6B, 6C, and 6D show corresponding inhibition curves for I-IVb-AE, I-IVb-A-HCl, and I-IVb-I, respectively."}, "[1]": {"tested_on": "human primary skin fibroblasts", "test": "Prostaglandin levels (ELISA) in supernatant of LPS- or IL-1β-stimulated human primary skin fibroblasts", "format": "cell-based", "settings": "24 hours", "procedure": "FIG. 3. (A-B) Levels of PGE2 (A) and PGD2 (B) in supernatant of human primary skin fibroblasts exposed for 24 hours to vehicle, 1 μg/mL LPS or 1 μg/mL Interleukin-1β (IL-1β), normalized on vehicle. (C-D) Levels of PGE2 and PGD2 in supernatant of human primary skin fibroblasts exposed for 24 hours to 1 μg/mL LPS (C) or 1 μg/mL IL-1β (D) alone (set as 100%) or in combination with increasing concentrations of compound I-IVb-X (indicated as KH).\nThe cells were maintained in M199, HEPES (Thermo Fischer Scientific) containing 10% FBS (#758093, Greiner Bio-one), 100 IU/ml penicillin and 100 μg/ml streptomycin (#30-002-CI, Corning) under a humidified atmosphere of 5% CO2 at 37° C. The cells were passaged by trypsinization every 4-5 days until they reached the passage number 20, and then discarded. The cells were grown to 80% confluence, trypsinized and then cultured in 96-well plates (4×10^3 cells/well) 24 hours before an experiment.\nThe concentration of the PGE2, PGD2 and 6-keto-PGF1α in culture medium was determined by Enzyme-Linked Immuno Sorbent Assay (ELISA) using, respectively, the PGE2 high sensitivity EIA kit (Enzo Life Science), the Prostaglandin D2-MOX ELISA Kit (Cayman Chemicals) and the 6-keto Prostaglandin F1α ELISA Kit (Cayman Chemicals), according to the manufacturer's instructions. […]"}, "[2]": {"tested_on": "RAW 264.7 murine macrophage cells", "test": "Prostaglandin levels (ELISA) in supernatant of LPS-stimulated RAW 264.7 cells", "format": "cell-based", "settings": "1 μg/mL LPS, 24 hours, increasing concentrations", "procedure": "FIG. 2. (A-C) Levels of prostaglandins (PG) PGE2 (A), PGD2 (B) and 6-keto PGF1a (C) in supernatant of RAW 264.7 murine macrophage cells exposed for 24 hours to vehicle or 1 μg/mL lipopolysaccharide (LPS), normalized on vehicle. (D-F) Levels of PGE2, PGD2 and 6-keto PGF1a in supernatant of RAW 264.7 murine macrophage cells exposed for 24 hours to vehicle or 1 μg/mL LPS, alone (set as 100%) or in combination with increasing concentrations of compound I-IVb-X (a compound of general structure (I) wherein T is of general structure (IVb), in the S,R-configuration, and wherein as per compound X the following apply: L=L^19; R^1═H; R^2—R^2′=L^3; R^3═H; indicated as KH) (D), non-selective COX inhibitor indomethacin (E) or COX-2 inhibitor celecoxib (F).\nRAW264.7 cells (Sigma-Aldrich, St-Louis) were maintained in DMEM (Thermo Fisher Scientific) containing 10% FBS (Greiner Bio-one), and antibiotics (100 U/ml penicillin, 100 μg/ml streptomycin) under a humidified atmosphere of 5% CO2 at 37° C. The cells were grown to 80% confluence, scraped and then cultured in either 96-well plates (2×10^4 cells/well) or six-well plates (4×10^5 cells/well) for 6-24 hours before an experiment.\nThe concentration of the PGE2, PGD2 and 6-keto-PGF1α in culture medium was determined by Enzyme-Linked Immuno Sorbent Assay (ELISA) using, respectively, the PGE2 high sensitivity EIA kit (Enzo Life Science), the Prostaglandin D2-MOX ELISA Kit (Cayman Chemicals) and the 6-keto Prostaglandin F1α ELISA Kit (Cayman Chemicals), according to the manufacturer's instructions. Samples (100 μl) of culture medium from each well were harvested and diluted with the assay buffer.\nRAW 264.7 macrophage cells were treated with the inflammatory stimulus LPS alone or in combination with increasing concentrations of compound I-IVb-X (a compound of general structure (I) wherein T is of general structure (IVb), in the S,R-configuration, and wherein as per compound X the following apply: L=L^19; R^1═H; R^2—R^2′=L^3; R^3═H), the NSAID indomethacin or the Coxib Celecoxib. After 24 hours incubation the levels of PGE2, PGD2 and 6-keto PGF1a were quantified in the cell supernatant by ELISA. […] Similar results were obtained with compound I-IVb-X in human primary skin fibroblasts."}, "[3]": {"settings": "single concentration (3 μM), positive controls"}}, "note": "Where a name gives a salt, the structure may show the parent alone.", "data": [{"compound": "CC1=C(C)C(=O)C(CC[C@](C)(O)C(=O)N2CCNCC2)=C(C)C1=O", "note": "[I-IVb-A-HCl]", "values": [{"measurement": "IC50", "setting": "mPGES-1", "value": 1020, "unit": "nM"}]}, {"compound": "CC1=C(C)C(=O)C(CC[C@](C)(O)C(=O)N2CCC(NC(=O)[C@H](C)N)CC2)=C(C)C1=O", "note": "[I-IVb-AB-HCl]", "values": [{"measurement": "IC50", "setting": "mPGES-1", "value": 238, "unit": "nM"}]}, {"compound": "CC1=C(C)C(=O)C(CC[C@](C)(O)C(=O)N[C@H]2CC[C@H](N)CC2)=C(C)C1=O", "note": "[I-IVb-AE]", "values": [{"measurement": "IC50", "setting": "mPGES-1", "value": 18, "unit": "nM"}]}, {"compound": "CC1=C(C)C(=O)C(CC[C@](C)(O)C(=O)N[C@H]2CN3CCC2CC3)=C(C)C1=O", "note": "[I-IVb-AI-HCl]", "values": [{"measurement": "IC50", "setting": "mPGES-1", "value": 726, "unit": "nM"}]}, {"compound": "CC1=C(C)C(=O)C(CC[C@](C)(O)C(=O)Nc2ccc(CN)cc2)=C(C)C1=O", "note": "[I-IVb-AJ-HCl]", "values": [{"measurement": "IC50", "setting": "mPGES-1", "value": 1050, "unit": "nM"}]}, {"compound": "CC1=C(C)C(=O)C(CCC(C)(O)C(=O)NCCN(C)C)=C(C)C1=O", "note": "(stereo not shown) [I-IVb-I]", "values": [{"measurement": "IC50", "setting": "mPGES-1", "value": 1120, "unit": "nM"}]}, {"compound": "CC1=C(C)C(=O)C(CCC(C)(O)C(=O)N[C@@H](CCCN)C(=O)O)=C(C)C1=O", "note": "(stereo partly shown) [I-IVb-N]", "values": [{"measurement": "IC50", "setting": "mPGES-1", "value": 10.4, "unit": "nM"}]}, {"compound": "CC1=C(C)C(=O)C(CC[C@](C)(O)C(=O)N[C@@H]2CCCNC2)=C(C)C1=O", "note": "[I-IVb-X]", "values": [{"measurement": "mPGES-1 activity in purified microsomes", "setting": "mPGES-1; increasing concentration of compound", "value": "decreased"}, {"measurement": "IC50", "setting": "mPGES-1", "value": 458, "unit": "nM"}, {"measurement": "level of PGE2 in supernatant", "setting": "[1]; 1 μg/mL IL-1β", "value": "efficiently reduce"}, {"measurement": "level of PGE2 in supernatant", "setting": "[1]; 1 μg/mL LPS", "value": "efficiently reduce"}, {"measurement": "level of 6-keto PGF1a in cell supernatant", "setting": "[2]", "value": "no effect"}, {"measurement": "level of PGD2 in cell supernatant", "setting": "[2]", "value": "no effect"}, {"measurement": "level of PGE2 in cell supernatant", "setting": "[2]", "value": "dose-dependently reduce"}]}, {"compound": "CC(C)c1ccc2c(c1)c(SC(C)(C)C)c(CC(C)(C)C(=O)O)n2Cc1ccc(Cl)cc1", "note": "[MK866, reference compound]", "values": [{"measurement": "mPGES-1 activity in purified microsomes", "setting": "mPGES-1; [3]", "value": "decreased"}]}, {"compound": "O=C(Nc1ccc(-c2ccc(Cl)c(Cl)c2)cc1)C1=C(O)c2ccccc2S(=O)(=O)N1", "note": "[PF9184, reference compound]", "values": [{"measurement": "mPGES-1 activity in purified microsomes", "setting": "mPGES-1; [3]", "value": "decreased"}]}, {"compound": "COc1ccc2c(c1)c(CC(=O)O)c(C)n2C(=O)c1ccc(Cl)cc1", "note": "[indomethacin, reference compound]", "values": [{"measurement": "level of 6-keto PGF1a in cell supernatant", "setting": "[2]", "value": "dose-dependently reduced"}, {"measurement": "level of PGD2 in cell supernatant", "setting": "[2]", "value": "dose-dependently reduced"}, {"measurement": "level of PGE2 in cell supernatant", "setting": "[2]", "value": "dose-dependently reduced"}]}]}
